Assay results published in publication PMC4106133 (Journal of medicinal chemistry, 2013).
pIC50: −log10 of the molar value.

Legend:
[1] = target: T1, α4β2 nAChR (Rattus norvegicus, UniProt P09483+P12390); test: [3H]epibatidine binding to α4β2 nAChR in cell membranes; conditions: binding selectivity for α4β2 over α3β4
[2] = tested on: α3β4α5 nAChR; test: binding affinity against α3β4α5 nAChR
[3] = target: T1, α4β2 nAChR; test: nAChR functional assay, membrane potential change; type: cell-based
[4] = target: α3β4 nAChR (Rattus norvegicus, UniProt P04757+P12392); test: nAChR functional assay, membrane potential change; type: cell-based
Sequence of α3β4 nAChR (P04757 26-499): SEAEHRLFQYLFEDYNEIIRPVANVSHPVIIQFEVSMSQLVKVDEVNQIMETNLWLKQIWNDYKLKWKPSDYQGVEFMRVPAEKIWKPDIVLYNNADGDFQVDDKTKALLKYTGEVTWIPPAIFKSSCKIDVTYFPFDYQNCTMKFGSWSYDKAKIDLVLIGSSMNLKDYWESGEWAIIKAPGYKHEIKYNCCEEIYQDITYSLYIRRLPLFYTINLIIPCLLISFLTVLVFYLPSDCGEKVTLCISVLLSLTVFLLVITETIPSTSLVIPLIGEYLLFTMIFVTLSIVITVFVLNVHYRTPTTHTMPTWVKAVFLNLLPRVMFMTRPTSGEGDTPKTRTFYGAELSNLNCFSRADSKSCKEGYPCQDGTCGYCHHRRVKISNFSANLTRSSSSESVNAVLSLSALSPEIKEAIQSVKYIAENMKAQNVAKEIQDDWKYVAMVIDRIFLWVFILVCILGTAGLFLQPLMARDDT
Sequence of α3β4 nAChR (P12392 21-495): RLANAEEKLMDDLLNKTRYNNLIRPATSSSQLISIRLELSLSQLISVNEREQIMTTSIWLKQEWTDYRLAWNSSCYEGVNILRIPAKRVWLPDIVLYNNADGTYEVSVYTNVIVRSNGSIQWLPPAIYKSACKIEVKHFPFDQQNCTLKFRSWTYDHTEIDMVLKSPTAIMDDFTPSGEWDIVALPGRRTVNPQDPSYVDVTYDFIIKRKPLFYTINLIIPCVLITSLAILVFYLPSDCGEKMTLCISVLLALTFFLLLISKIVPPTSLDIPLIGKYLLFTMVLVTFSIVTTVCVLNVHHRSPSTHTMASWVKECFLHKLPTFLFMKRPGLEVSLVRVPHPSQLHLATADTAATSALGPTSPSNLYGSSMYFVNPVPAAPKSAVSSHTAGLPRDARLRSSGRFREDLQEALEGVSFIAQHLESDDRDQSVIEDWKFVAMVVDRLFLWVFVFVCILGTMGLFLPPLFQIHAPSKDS

T1 sequence (P09483 31-630): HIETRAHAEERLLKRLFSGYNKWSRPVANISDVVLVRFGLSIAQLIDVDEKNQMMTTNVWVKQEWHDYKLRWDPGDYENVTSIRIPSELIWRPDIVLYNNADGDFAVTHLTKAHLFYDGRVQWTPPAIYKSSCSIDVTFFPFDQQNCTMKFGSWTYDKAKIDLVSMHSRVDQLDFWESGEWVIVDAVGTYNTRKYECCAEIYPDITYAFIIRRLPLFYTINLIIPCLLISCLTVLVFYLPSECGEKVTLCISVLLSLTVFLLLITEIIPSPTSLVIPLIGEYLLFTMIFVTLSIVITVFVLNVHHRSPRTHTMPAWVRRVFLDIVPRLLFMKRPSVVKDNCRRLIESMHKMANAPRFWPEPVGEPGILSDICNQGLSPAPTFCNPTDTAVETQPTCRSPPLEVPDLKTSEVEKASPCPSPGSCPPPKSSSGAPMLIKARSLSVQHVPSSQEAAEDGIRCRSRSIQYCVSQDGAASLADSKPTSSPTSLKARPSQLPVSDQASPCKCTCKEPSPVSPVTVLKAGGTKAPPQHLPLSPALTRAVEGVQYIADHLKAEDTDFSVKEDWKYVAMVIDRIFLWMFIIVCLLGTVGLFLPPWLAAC
T1 sequence (P12390 25-500): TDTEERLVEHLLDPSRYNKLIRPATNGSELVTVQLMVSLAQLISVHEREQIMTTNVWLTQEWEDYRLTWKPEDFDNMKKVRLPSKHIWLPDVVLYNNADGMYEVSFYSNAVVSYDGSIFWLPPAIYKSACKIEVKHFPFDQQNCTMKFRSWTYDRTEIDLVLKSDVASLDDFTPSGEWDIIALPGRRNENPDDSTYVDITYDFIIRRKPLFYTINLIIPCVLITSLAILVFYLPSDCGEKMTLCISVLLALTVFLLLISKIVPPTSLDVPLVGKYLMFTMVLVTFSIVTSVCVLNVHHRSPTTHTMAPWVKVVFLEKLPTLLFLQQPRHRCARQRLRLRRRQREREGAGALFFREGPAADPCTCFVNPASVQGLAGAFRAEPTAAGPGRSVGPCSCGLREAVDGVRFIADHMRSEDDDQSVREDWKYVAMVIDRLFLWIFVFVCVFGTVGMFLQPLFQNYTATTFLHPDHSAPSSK

SMILES | selectivity (fold) (α3β4 Ki/α4β2 Ki) [1] | binding affinity Kd/Ki against α3β4α5 nAChR [2] [µM] | agonist activity at α4β2 nAChR ([3]; membrane potential change, HEK cells, up to 10 µM) | mode of inhibition of nicotine's activity ([3]; nicotine dose response curves with various concentrations of 301) | inverse agonist activity ([3]; α4β2-containing cells, very high concentrations) | pIC50 [4] | agonist activity at α3β4 nAChR ([4]; membrane potential change, HEK cells) | Emax ([3]; HEK293, read-out: nicotine maximum stimulation) [%]
CC(C)(C)C1CCC(CN2C(=N)N(CCCC[C@H]3CNC(=N)N3CCc3cccnc3)C[C@H]2Cc2ccccc2)CC1 (stereo partly drawn) [Compound 301, (R)-4-Benzyl-3-((4-tert-butylcyclohexyl)methyl)-1-(4-((S)-2-imino-3-(2-(pyridin-3-yl)ethyl)imidazolidin-4-yl)butyl)imidazolidin-2-imine] | ~500 | 9.062 | no agonist activity | noncompetitive | potential inverse agonist activity | < 5.00 | no agonist activity | 
CN1CCC[C@H]1c1cccnc1 [nicotine, reference compound] |  |  |  |  |  |  |  | 100
